# Test results as given in patent US11332438B2, “Creatine prodrugs, compositions and methods of use thereof” (Ultragenyx Pharmaceutical Inc., priority 2017, dated 2022).
# Tests used:
# [1] = d3-Creatine and d3-creatinine concentration in CrT KO mice brain after IV bolus dose (FIGS. 3 and 4, Table 6); assay type: in vivo; settings: CrT KO mice, 10 mg/kg IV, FIG. 4
# Method: The brain concentrations of d3-creatine and d3-creatinine was measured in CrT KO mice following 10 mg/kg single dose IV bolus dose of compound 14 and 15 (FIGS. 3 and 4). As shown by FIG. 3, brain d3-creatine concentration was higher following administration of compound 15 compared to compound 14. […] Without bound to any theory, the macrocyclic compound 15 prodrug reduces d3-creatine cyclization to d3-creatinine when compared to linear compound 14 prodrug.
# The concentration of d3-creatine in CrT KO mice brain were also measured for other compounds disclosed in the present application as shown in Table 6. The concentrations of d3-creatine, d3-creatinine and creatine prodrugs are measured by LC-MS/MS. The brain sample is homogenized with 4× (weight to volume) of KPI 100 mM buffer containing anti-proteases and anti-phosphatases (if needed). 50 μl of brain homogenate is then de-proteinized using 4× volume/volume of a solution containing 80% acetonitrile and 20% water with bucetin, d5-Cr (internal standard). The plate is then spun at 4000 rpm, 10 minutes, 4° C. and samples are transferred to a new plate for bioanalysis. Each analyte in each sample was quantitated against a curve in matching biomatrix using an authentic standard.
# [2] = In vivo IV dosing in CrT KO mice: prodrug, d3-Cr and d3-Crn in brain (Table 5); settings: IV 10 mg/kg, CrT KO mouse brain; BQL prodrug = 41.2 ng/mL
# Outline: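 CrT KO mice received prodrugs by IV injection at 10, 15 or 25 mg/kg. Brains were collected, flash frozen and homogenized in 100 mM KPI buffer with anti-proteases. Prodrug, d3-Cr and d3-Crn were quantified by LC-MS/MS and expressed as brain concentration (macrocycles) or AUC over time (linear prodrugs).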
# [3] = Repeat dosing study, d3-creatine levels in non-human primate (NHP) brain (FIG. 2, Table 7); assay type: in vivo; settings: 7 infusions q.d., all brain regions tested
# Method: FIG. 2 is a graph of the data from a multi-dose study comparing d3-creatine and d3-creatinine levels in the brain of non-human primates, measured after a total of 7 infusions of compound 14 administered q.d. (once daily). Cr=d3-creatine; CRN=d3-creatinine.
# Non-human primate (NHP) brains were dosed with Compound 8 (120 mg/kg) and Compound 14 (18 mg/kg) over a seven day period (i.v. infusion provide q.d.).
# [4] = Chemical stability in simulated gastric fluid (SGF) without pepsin; assay type: physicochemical; settings: 50 μM prodrug
# Outline: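 Incubations used 50 μM compound at 37 °C in phosphate buffered saline, fasted simulated intestinal fluid without pancreatin, or fasted simulated gastric fluid without pepsin.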
# [5] = Liver microsome stability, mouse; assay type: in vitro ADME; settings: liver microsomes, pH 7.4, Table 2C, read-out: Microsome Stability Mouse t1/2
# Outline: (§1)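 Test compound incubated with mouse or human liver microsomes and NADPH in 0.1 M potassium phosphate, 1.0 mM EDTA, pH 7.4, with a 60-min no-NADPH control. Samples quenched with ACN containing internal standard at 0, 5, 10, 20, 30 and 60 min, then analysed by LC/MS.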
# [6] = test system: Phenocell CrT deficient neurons (iPSC-derived human neurons); test: Creatine prodrug uptake and d3-creatine release in Phenocell CrT deficient neurons (Table 4B); assay type: cell-based; settings: 2 hours
# Method: Human neurons were obtained by differentiation of iPSC-derived neural stem cells for 14 days. The iPSCs were obtained from Phenocell Corporation. Neurons were cultured and differentiated to Day 10 and then frozen in liquid nitrogen. Neurons were thawed and replated at 1×10^6 per well of viable cells on poly-ornithine/laminin coated plates in 2 ml medium per well. Differentiation in complete Neurol medium with 2 ng/ml FGF2 was carried out for 4 additional days with a complete medium change (90% of medium) on Day 12. Activin A (20 ng/ml final conc.) was spiked into the cultures on Day 11 and Day 13. […] In parallel, compounds were incubated in medium alone to assess chemical stability of parent prodrug and metabolites. At the end of the 2 hour incubation, supernatants were collected and frozen at −80 C. Neurons in 6 well plates were washed gently 3× with HBSS and frozen at −80° C. Cell lysates were obtained by addition of 130 μl/well 10 mM Tris pH 7.4 with complete Mini protease inhibitors and scraping of wells. Plates were kept on ice during processing. Lysates were homogenized by hand briefly with a green pestle in 1.5 ml centrifuge tubes and then vortexed at high speed for 5 seconds. Lysates were centrifuged at 13,000 g, 10 minutes, 4 C and supernatants (cytosol fraction) were transferred in a new tube. A crash solution constituted of 80% acetonitrile and 20% water with bucetin, d5-Cr (internal standard) was added at 4:1 volume to volume to 50 ul of all samples for a total volume of 250 μL. Then plate was spun at 4000 rpm, 10 minutes, […] Samples were transferred to a new plate and frozen at −80 C prior to analysis by LC-MS/MS (Table 4B).
# [7] = Single-dose study in CrT KO mice: creatine and creatinine in plasma and brain over 8 h (FIG. 1); assay type: in vivo
# Method: FIG. 1 is a graph of the data from a single-dose study comparing d3-creatine and d3-creatinine levels in the plasma and brain of CrT KO mice treated with compound 15 and measured over 8 h. Cr=d3-creatine; CRN=d3-creatinine.
# The plasma and brain concentrations of creatine and creatinine was measured in CrT KO mice upon treatment with compound 15 (FIG. 1). […] The ratio of [creatine]Brain.[creatine]Plasma can be an useful parameter for a successful clinical development of creatine prodrugs for treating CTD and related conditions.
# [8] = Liver microsome stability, human; assay type: in vitro ADME; settings: liver microsomes, pH 7.4, Table 2C, read-out: Microsome Stability Human t1/2
# Outline: as §1
SMILES,"brain concentration of d3-creatinine, compound 14 versus compound 15 [1]",AUClast prodrug in the brain [2],d3-creatine (d3-Cr) levels in NHP brain on repeat administration (in words) [3],"Chemical Stability SGF, no enzyme % T0 at 2 hours at 37 °C. ([4]; Table 2A)",half-life at 10 μM [5],"Prodrug concentration in the cell cytosol ([6]; Study No. 2, 100 μM)","d3-Creatine concentration in the cell cytosol ([6]; Study No. 2, 100 μM)","Prodrug concentration in the cell cytosol ([6]; Study No. 2, 500 μM)",creatine levels compared to creatinine (CRN) levels [7],brain creatine (Cr) concentration compared to plasma ([7]; measured over 8 h),"Chemical Stability SGF, no enzyme % T0 at 2 hours at 37 °C. ([4]; Table 2C)",half-life at 10 μM [8]
Cl.[2H]C([2H])([2H])N(CC(=O)OCCCCCCC)C(=N)NC(=O)CCCCCC [Compound 14],not significantly different,BQL,dramatically increases,80%,,,,,,,,
"Cl.[2H]C([2H])([2H])N1CC(=O)OCCCCCCCCCCC(=O)NC1=N [Compound 15, 5-imino-4-trideuteriomethyl-1-oxa-4,6-diazacycloheptadecane-2,7-dione Hydrochloride]",not significantly different,,,,< 5 min,BLOQ,BLOQ,BLOQ,higher than creatinine (CRN) levels,higher than the concentration in plasma,97%,< 5 min
